The test system of test [1] is Leukotriene C4 production in mouse peritoneal macrophages. Briefly: In vitro mouse peritoneal macrophage Leukotriene C4 inhibition. In kind it is cell-based. To be noted: zymosan stimulated, read-out: Percent Inhibition. As to the method: IN VITRO MOUSE PERITONEAL MACROPHAGE LEUKOTRIENE C4 INHIBITION
The test described below measures the ability of compounds to inhibit the production of Leukotriene C4 in mouse peritoneal macrophages.
Mice (female, CD-1, weighing 25 g) are euthanized by exposure to carbon dioxide. The pertoneal cavity is exposed by peeling back the abdominal skin. A 5 mL portion of media (M199 containing 1% fetal bovine serum, 100 units/mL of penicillin, 100 μg/mL streptomycin, 20 units/mL of heparin and no glutamine) is injected into the exposed peritoneal cavity of each mouse. The lavage fluid is removed and pooled to yield proximately 1×10^6 macrophages/mL. A 2 mL portion of lavage fluid is added to each well of a 24 well sterile multidish and the marcophages are allowed to adhere to the plate for 2 hours at 37° C. in a 5% carbon dioxide atmosphere. The media is removed and each well is washed with 2 mL of phosphate buffered saline (PBS). A 1 mL portion of media, without heparin, but containing 5 μCi/mL of 3H-myoinositol is added to each well and the plates are incubated overnight at 37° C. in a 5% carbon dioxide atmosphere. The media is removed and the cells are washed twice with 2 mL portions of PBS. A 1 mL portion of Puck's saline formulation A containing 1 mM calcium chloride, 1 mM magnesium chloride and 10 mM lithium chloride is added to each well. (The Puck's formulation is made first as a 10× solution which contains 4 g of potassium chloride, 80 g of sodium chloride and 10 g of glucose per liter. The Puck's saline formulation A is made using 10 mL of the 10× Puck's formulation, 0.47 mL of 7.5% sodium bicarbonate and 2 mL of 1M N-2-hydroxyethylpiperazine-N'-2-ethanesulfonic acid per 100 mL.)
Compounds are dissolved in dimethyl sulfoxide. Compounds are tested at concentrations of 10, 1 and 0.1 μM. Each concentration is tested in duplicate.
A 1 μL portion of compound solution or vehicle (DMSO) is added to each well and the plates are incubated for 15 minutes at 37° C. in a 5% carbon dioxide atmosphere. Zymosan is then added to provide a final concentration of 50 μg/mL in each well and the plate is incubated for 1 to 2 hours at 37° C. in a 5% carbon dioxide atmosphere.
Following incubation 200 μL portions of media are transferred to 12×75 mm tubes. The tubes are either assayed immediately or stored at -20° C. until they can be assayed.
The media is assayed for the presence of Leukotriene C4 by radioimmunoassay which is performed according to the manufacturer's instructions (Advanced Magnetics; Cambridge, Mass.). Inhibition of LTC4 production is calculated as the ratio of the amount of LTC4 formed in the presence (LTC4 +cpd) and absence (LTC4 no cpd)of compound according to the equation below. [formula] IC50 values (concentration of compound producing a 50% inhibition of LTC4 production) are calculated by linear regression analysis of percentage inhibition versus log compound concentration plots.

The subject of test [2] is Leukotriene B4 production in rat blood. The test can be described thus: Rat ex vivo Leukotriene B4 inhibition. The class given is in vivo. To be noted: 2 hours post dose, ex vivo A23187 challenge; for inhibition in vivo at 50 mg/kg: 50 mg/Kg oral. As for the experimental part:
RAT EX VIVO LEUKOTRIENE B4 INHIBITION
The test method described below measures the ability of a compound when administrated orally to rats to inhibit the production of Leukotriene B4 in their blood which is drawn and challenged.
Rats (CD, male, non-fasted, 250 g) are lightly anesthetized with carbon dioxide and an approximately 0.75 mL sample of whole blood is obtained via cardiac puncture. The sample is dispensed into 12×75 mm polypropylene tubes containing 8-10 μL of 10,000 units/mL heparin, mixed and then maintained on ice. The rats are allowed to recover approximately one hour then dosed orally with compound dissolved in PEG 400 at a 5 mL/Kg volume. Five (5) rats are utilized per group. Two (2) hours post dose the rats are again anesthetized with carbon dioxide and the blood sampled again via cardiac puncture.
Duplicate 200 μL portions of blood are added to 1.0 mL polypropylene tubes. A 10 μL portion of 1 mM A23 187 Calcium Ionophore in dimethyl sulfoxide/Tris buffer is added to each tube. The tubes are gently vortexed then incubated in a 37° C. water bath for 30 minutes. The tubes are then centrifuged at 4000 rpm for 10 minutes. 50 μL portions of plasma are transferred to 1.0 mL tubes containing 200 μL of methanol. The tubes are vortexed then placed in the freezer overnight.
The tubes are removed from the freezer then centrifuged at 4000 rpm for 10 minutes. 20 μL portions of the methanol/plasma supernatant and 10 μl methanol dilutions of LTB4 standard are transferred to 96 well v-bottom microtiter plates. The plates are vacuum dried at 40° C. A 40 μL portion of LTB4 radioimmunoassay buffer is added to each well. The plate is bath sonicated for 5 minutes then assayed according to the manufacturer's instructions (Advanced Magnetics; Cambridge, Mass.). Percent inhibition values are obtained by comparing the level of LTB4 in the post-dose samples to the level in the pre-dose samples according to the equation below. [formula]

Test [3] relates to Leukotriene B4 production in whole human blood. Briefly: In vitro human whole blood Leukotriene B4 inhibition. To be noted: A23187 stimulated, read-out: IC50 (concentration producing 50% inhibition of LTB4 production). The class given is cell-based. As to the method: IN VITRO HUMAN WHOLE BLOOD LEUKOTRIENE B4 INHIBITION
The test method described below measures the ability of compounds to inhibit the production of Leukotriene B4 in whole human blood.
Whole human blood is collected by venipuncture into a 60 cc syringe containing 100 units of heparin.
compounds are disolved in dimethyl sulfoxide. Compounds are tested at concentrations of 100, 33, 11, 3.7, 1.2 and 0.41 μM. Each concentration is tested in duplicate.
Aliquots (1 μL) of compound solution are added to 1 mL polyethylene tubes followed by the addition of 500 μL portion of heparinized blood. The tubes are mixed thoroughly then allowed to preincubate at ambient temperature for 15 minutes. A 25 μL portion of 1 mM Calcium Ionophore A23187 in dimethyl sulfoxide/Tris buffer is added to the tubes. The tubes are mixed thoroughly then incubated at 37° C. for 30 minutes.
The tubes are centrifuged at 2000 rpm for 10 minutes. 100 μL portions of plasma are transferred to 1 mL polyethylene tubes containing 400 μL portions of methanol. The tubes are vortexed then frozen at -20° C. overnight.
The tubes are centrifuged for 10 minutes then 100 μL portions of methanol supernatant are transferred to a 96 well microtiter plate. 10 μL portions are transferred from this plate to a 96 well assay plate. Methanol dilutions of LTB4 standard curve are added to the assay plate. 10 μL portions of blank methanol/plasma supernatant are added to each standard curve well. The assay plate is vacuum dried at ambient temperature. The radioimmunoassay buffer is added, the plate is bath-sonicated for 5 minutes then assayed according to the manufacturer's instructions (Advanced Magnetics; Cambridge, Mass.). Inhibition of LTB4 production is calculated as the ratio of the amount of LTB4 formed in the presence (LTB4 +cpd) and absence (LTB4 no cpd) of compound according the equation below. [formula] IC50 values (concentration of compound producing a 50% inhibition of LTB4 production) are calculated by linear regression analysis of percentage inhibition versus log compound concentration plots.

For orientation: inhibition means the share of the control response that was lost under treatment. As a reminder, the inhibition in vivo is the percentage by which the read-out fell short of the control. As for `CCC(CC)N(O)C(=O)Nc1ccc(Cc2ccc(NC(=O)N(O)C(CC)CC)cc2)cc1` [Example 12, 4,4'-Methylenebis(1-hydroxy-1-(1-ethylpropyl)-3-phenylurea)], in test [1], the inhibition at 0.1 µM was determined as 83%, the inhibition at 1 µM was 93% and the inhibition at 10 µM is 100%. Moreover, the inhibition in vivo at 50 mg/kg in test [2] came out at 15%.

As to `CN(O)C(=O)Nc1ccc(Cc2ccc(NC(=O)N(C)O)cc2)cc1` [Example 1, 4,4'-Methylenebis(1-hydroxy-1-methyl-3-phenylurea)], in test [3], the IC50 was found to be 550 nM. In addition, in test [1], the inhibition at 0.1 µM stood at 61%, the inhibition at 1 µM turned out to be 95% and the inhibition at 10 µM worked out at 100%. The compound further returned an inhibition in vivo at 10 mg/kg in test [2] (10 mg/Kg oral) of 16%. Further, 50 mg/kg produced 93% inhibition in vivo in test [2].

Consider `CC(C)N(O)C(=O)Nc1ccc(Cc2ccc(NC(=O)N(O)C(C)C)cc2)cc1` [Example 2, 4,4'-Methylenebis(1-hydroxy-1-isopropyl-3-phenylurea)], for which the IC50 in test [3] was 1700 nM. Besides, in test [1], the inhibition at 0.1 µM was 32%, the inhibition at 1 µM came out at 55% and the inhibition at 10 µM was found to be 54%. Besides, in test [2], 50 mg/kg produced 34% inhibition in vivo.

Turning to `O=C(Nc1ccc(Cc2ccc(NC(=O)N(O)Cc3ccccc3)cc2)cc1)N(O)Cc1ccccc1` [Example 3, 4,4'-Methylenebis(1-hydroxy-1-benzyl-3-phenylurea)], the IC50 in test [3] came out at 320 nM. Moreover, in test [1], the inhibition at 0.1 µM came out at 25%, the inhibition at 1 µM turned out to be 56% and the inhibition at 10 µM was found to be 74%. Besides, the inhibition in vivo at 50 mg/kg in test [2] turned out to be 6%.
